The text below walks through data of patent publication US12570655B2, “Cysteine covalent modifiers of AKT1 and uses thereof” (Terremoto Biosciences, Inc., priority 2023, dated 2026).

The target of test [1] is T1, AKT1 E17K (Homo sapiens, UniProt P31749, E17K).
T1 construct: expressed in transfected cells; host or cells: HEK293
Nature of the test: Live cell AKT1 E17K target engagement by NanoBRET competitive probe displacement. Conditions: HEK293 cells transfected with kinase-NanoLuciferase fusion, 2 h at 37° C. In kind it is cell-based. The essentials: (§1)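 IC50 reflects displacement of a fluorescent ATP-competitive tracer, dosed near its EC50, from kinase–NanoLuciferase fusions in live HEK293 cells. Cells were incubated with compound and tracer for 2 h at 37 °C, then E600/E460 BRET was read.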
In general terms: In BRET a luciferase serves as donor, and the signal depends on an acceptor being close.

The target in test [2] is T2, AKT1 WT (Homo sapiens, UniProt P31749, DEL120-128/E133D/G130S/INS132HT/S129A).
T2 construct: Akt1(DrLink)-WT/E17K were gene synthesized and cloned by Gibson assembly into the pFastBac vector; His8 followed by TEV site (MSHHHHHHHHGSENLYFQS) (N); DrLink (replaced PH-kinase interdomain linker, part of the construct's name); made in house; host or cells: Akt1(DrLink): baculovirus/Sf9; NB41: E. coli Rosetta 2(DE3)pLysS
Nature of the test: Compound 13/AKT1 WT co-crystallization complex, crystal structure. The test is classed as binding. Conditions: FIG. 1C.
Target sequence in this assay (P31749 with tags, fused parts or gaps DEL120-128/S129A/G130S/INS132HT/E133D): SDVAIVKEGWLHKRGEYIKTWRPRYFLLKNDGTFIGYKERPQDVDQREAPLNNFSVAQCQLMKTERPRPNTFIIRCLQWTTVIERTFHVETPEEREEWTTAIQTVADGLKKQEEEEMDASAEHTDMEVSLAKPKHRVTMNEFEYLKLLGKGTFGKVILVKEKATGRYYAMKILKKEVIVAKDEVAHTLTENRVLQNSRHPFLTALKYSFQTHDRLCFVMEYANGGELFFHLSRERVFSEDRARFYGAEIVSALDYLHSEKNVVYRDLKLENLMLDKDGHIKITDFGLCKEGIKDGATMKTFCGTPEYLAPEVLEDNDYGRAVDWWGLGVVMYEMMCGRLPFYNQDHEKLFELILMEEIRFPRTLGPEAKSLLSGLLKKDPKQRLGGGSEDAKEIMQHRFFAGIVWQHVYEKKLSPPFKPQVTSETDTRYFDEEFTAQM

Test [3] concerns the target T3, AKT1 E17K (Homo sapiens, UniProt P31749, DEL120-128/E133D/E17K/G130S/INS132HT/S129A).
T3 construct: Akt1(DrLink)-WT/E17K were gene synthesized and cloned by Gibson assembly into the pFastBac vector; His8 followed by TEV site (MSHHHHHHHHGSENLYFQS) (N); DrLink (replaced PH-kinase interdomain linker, part of the construct's name); made in house; host or cells: Akt1(DrLink): baculovirus/Sf9; NB41: E. coli Rosetta 2(DE3)pLysS
Nature of the test: Co-crystallization showing covalent complex formation with AKT1 E17K. Conditions: AKT1(DrLink)-E17K-NB41 complex, electron density. The protocol: (§2) Akt1(DrLink)-NB41 Complex Formation
(§3) NB41 was added to AKT(DrLink)-WT/E17K using a 1.2:1 molar ratio and incubated for 10 minutes at 4° C. Final concentration of 10 mM EDTA was then added to this complex. The complex was purified by gel filtration on Superdex 200 (10/300 GL) column (gel filtration buffer: 20 mM HEPES pH 8.0, 20 mM NaCl, 5 mM DTT). The resulting complex was then concentrated to […] and flash-frozen in liquid nitrogen and stored at −80° C. This complex was then used for crystal formation.
(§4) Crystallization, Data Collection and Structure Determination
(§5) 6 mg/mL AKT1 WT or E17K DrLink-NB41 complex is incubated with 1 mM TMB Compound 13 on ice for 2 hours prior to crystallization trials. Crystals were obtained by the vapor diffusion technique at 20′C after mixing an equal volume of the complex with the well solution containing 17-23% PEG3350, 200 mM Li2SO4, 100 mM Bis Tris Propane pH 6.5-9.0, 10% ethylene glycol. Crystals grew within 3 days. Crystals were cryo protected in mother liquor supplemented with […] and flash cooled in liquid nitrogen for storage and data collection. All diffraction datasets were collected and processed by Helix Biostructures at ESRF beamline TD30B on Sep. 1, 2023. […] The initial structures were determined through molecular replacement with Phaser in CCP4 suite with the structure […] 7APJ as a search model. […]

Test [4] has as its target T2, AKT1 WT. Nature of the test: Co-crystallization showing covalent complex formation with AKT1 WT. Conditions: AKT1(DrLink)-WT-NB41 complex, electron density. The protocol:
as §2, §3, §4, §5
Target sequence in this assay (P31749 with tags, fused parts or gaps DEL120-128/S129A/G130S/INS132HT/E133D): as above
Target sequence in this assay (as listed by the source partner): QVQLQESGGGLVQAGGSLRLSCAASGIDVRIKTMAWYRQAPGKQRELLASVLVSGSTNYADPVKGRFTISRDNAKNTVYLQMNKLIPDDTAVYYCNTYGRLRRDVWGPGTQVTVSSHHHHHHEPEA

Test [5] has as its target T4, AKT1 WT (Homo sapiens, UniProt P31749).
T4 construct: expressed in transfected cells; host or cells: HEK293
As to the kind of experiment: Live cell AKT1 WT target engagement by NanoBRET competitive probe displacement. Conditions: HEK293 cells transfected with kinase-NanoLuciferase fusion, 2 h at 37° C. The test is classed as cell-based. The essentials: as §1

In another test the target is T5, AKT2 (Homo sapiens, UniProt P31751).
T5 construct: expressed in transfected cells; host or cells: HEK293
T5 sequence (P31751 whole entry): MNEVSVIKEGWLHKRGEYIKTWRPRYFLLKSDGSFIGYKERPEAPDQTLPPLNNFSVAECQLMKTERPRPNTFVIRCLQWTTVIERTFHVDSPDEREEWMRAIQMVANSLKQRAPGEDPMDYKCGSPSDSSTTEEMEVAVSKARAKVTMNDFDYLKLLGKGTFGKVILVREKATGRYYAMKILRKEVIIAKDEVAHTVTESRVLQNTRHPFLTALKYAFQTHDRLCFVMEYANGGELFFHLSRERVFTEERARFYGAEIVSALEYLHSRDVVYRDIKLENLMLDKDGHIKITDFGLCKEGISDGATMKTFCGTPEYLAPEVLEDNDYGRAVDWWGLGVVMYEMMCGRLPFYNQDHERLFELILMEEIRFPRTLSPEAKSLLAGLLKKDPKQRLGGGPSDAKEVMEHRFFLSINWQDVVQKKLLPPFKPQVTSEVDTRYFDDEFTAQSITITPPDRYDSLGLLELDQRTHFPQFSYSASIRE
As to the kind of experiment: Live cell AKT2 target engagement by NanoBRET competitive probe displacement. In kind it is cell-based. Conditions: HEK293 cells transfected with kinase-NanoLuciferase fusion, 2 h at 37° C. The essentials:
as §1

The target in a further test is T6, AKT E17K (Homo sapiens, UniProt P31749, DEL120-128/E133D/E17K/G130S/INS132HT/S129A).
T6 construct: Akt1(DrLink)-WT/E17K were gene synthesized and cloned by Gibson assembly into the pFastBac vector; His8 followed by TEV site (MSHHHHHHHHGSENLYFQS) (N); DrLink (replaced PH-kinase interdomain linker, part of the construct's name); made in house; host or cells: Akt1(DrLink): baculovirus/Sf9; NB41: E. coli Rosetta 2(DE3)pLysS
T6 sequence (P31749 with tags, fused parts or gaps E17K/DEL120-128/S129A/G130S/INS132HT/E133D): as the sequence (P31749 with tags, fused parts or gaps DEL120-128/S129A/G130S/INS132HT/E133D) above, with E16K counted along it
T6 sequence (as listed by the source partner): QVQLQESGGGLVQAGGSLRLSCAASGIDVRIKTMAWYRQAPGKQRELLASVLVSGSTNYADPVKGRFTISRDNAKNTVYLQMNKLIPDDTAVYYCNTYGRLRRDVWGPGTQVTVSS
Nature of the test: Compound 13/AKT E17K co-crystallization complex, crystal structure. In kind it is binding. The note with it: FIG. 2C.

For test [6], the system named is LAPC4 prostate cancer cells. As to the kind of experiment: Antiproliferative effects in LAPC4 cells (CellTiter Glo). In kind it is cell-based. Conditions: LAPC4 cells (AKT1 E17K allele), read-out: LAPC4 proliferation IC50. The procedure, abridged: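 Seed 1,000 cells/well in IMDM/12% FBS/1% P/S; add compound dilutions (DMSO); incubate 72 h; read intracellular ATP with CellTiter Glo; fit luminescence to log(inhibitor)-response Hill curve for IC50.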
(In general: Cellular ATP, detected with luciferase, serves as a proxy for viable cell number.)

Each structure is given as a SMILES string. Like-named read-outs stand apart in the source and are kept apart here.

T4 sequence (P31749 whole entry): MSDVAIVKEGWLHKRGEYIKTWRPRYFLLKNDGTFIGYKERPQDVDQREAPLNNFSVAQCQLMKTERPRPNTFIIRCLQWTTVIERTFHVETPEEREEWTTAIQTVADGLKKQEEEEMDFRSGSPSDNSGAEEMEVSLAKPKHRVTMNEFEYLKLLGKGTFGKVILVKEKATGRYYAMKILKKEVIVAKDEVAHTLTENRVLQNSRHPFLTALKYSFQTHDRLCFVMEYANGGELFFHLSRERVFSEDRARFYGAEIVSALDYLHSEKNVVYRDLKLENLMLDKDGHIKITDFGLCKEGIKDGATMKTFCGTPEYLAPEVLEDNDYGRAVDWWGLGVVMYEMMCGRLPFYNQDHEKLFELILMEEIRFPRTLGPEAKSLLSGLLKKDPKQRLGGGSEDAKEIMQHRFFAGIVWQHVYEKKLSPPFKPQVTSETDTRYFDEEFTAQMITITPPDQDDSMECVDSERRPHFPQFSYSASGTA
T1 sequence (P31749 whole entry E17K): as the sequence (P31749 whole entry) above, with E17K counted along it
T3 sequence (P31749 with tags, fused parts or gaps E17K/DEL120-128/S129A/G130S/INS132HT/E133D): as the sequence (P31749 with tags, fused parts or gaps DEL120-128/S129A/G130S/INS132HT/E133D) above, with E16K counted along it

`C=CC(=O)N1CCC(N[C@H]2CCc3cc(-n4c(-c5cccnc5N)nc5ccc(-n6cccn6)nc54)ccc32)CC1` [Example 13, 1-(4-{[(1S)-5-[2-(2-aminopyridin-3-yl)-5-(pyrazol-1-yl)imidazo[4,5-b]pyridin-3-yl]-2,3-dihydro-1H-inden-1-yl]amino}piperidin-1-yl)prop-2-en-1-one]: the IC50 was determined as 56.1 nM at AKT1 E17K [1]; 17 nM on AKT1 WT [5]; 224 nM on AKT2; 144 nM in test [6] (Homo sapiens, LAPC4, 72 h). In addition, the “interaction seen in the co-crystal structure (site of covalent attachment)” value is “covalent bond between C296 cysteine residue of AKT1 WT and Compound 13” at AKT1 WT [2]; “covalent bond between C296 cysteine residue of AKT E17K and Compound 13” at AKT E17K. The “covalent bond formation in co-crystal structure” value on AKT1 E17K [3] and at AKT1 WT [4] was “covalent bond formation with C296” throughout.
Turning to `C=CC(=O)N1CCC(N[C@H]2CCc3cc(-n4c(-c5cccnc5N)nc5ccc(-n6nccn6)nc54)ccc32)C[C@H]1C` (single isomer, unassigned) [Example 261, 1-[(2R,4*)-4-{[(1S)-5-[2-(2-aminopyridin-3-yl)-5-(1,2,3-triazol-2-yl)imidazo[4,5-b]pyridin-3-yl]-2,3-dihydro-1H-inden-1-yl]amino}-2-methylpiperidin-1-yl]prop-2-en-1-one], the IC50 came to 43.3 nM on AKT1 E17K [1], 555 nM at AKT1 WT [5], 136 nM on AKT2 and 227 nM in test [6] (72 h).
Take `C=CC(=O)N1CCC(N[C@H]2CCc3cc(-n4c(-c5cccnc5N)nc5ccc(-c6cnn(C)n6)nc54)ccc32)CC1` [Example 160, 1-(4-{[(1S)-5-[2-(2-aminopyridin-3-yl)-5-(2-methyl-1,2,3-triazol-4-yl)imidazo[4,5-b]pyridin-3-yl]-2,3-dihydro-1H-inden-1-yl]amino}piperidin-1-yl)prop-2-en-1-one]: the IC50 at AKT1 E17K [1] was 26.9 nM; at AKT1 WT [5], 9.31 nM; at AKT2, 29.6 nM; in test [6] (Homo sapiens, LAPC4, 72 h), 27.4 nM.
With `C=CC(=O)Nc1cc(F)ccc1C(=O)N[C@H]1CCc2cc(-n3c(-c4cccnc4N)nc4ccc(-n5cccn5)nc43)ccc21` [Example 21, (S)-2-acrylamido-N-(5-(2-(2-aminopyridin-3-yl)-5-(1H-pyrazol-1-yl)-3H-imidazo[4,5-b]pyridin-3-yl)-2,3-dihydro-1H-inden-1-yl)-4-fluorobenzamide], the IC50 at AKT1 E17K [1] was found to be 32.8 nM; on AKT1 WT [5] it was 22.6 nM; at AKT2, 74.8 nM; in test [6] (Homo sapiens, LAPC4, 72 h), 88.5 nM.
For `C=CC(=O)N1CC2COC(C1)C2N[C@H]1CCc2cc(-n3c(-c4cccnc4N)nc4ccc(-n5cccn5)nc43)ccc21` (stereo partly drawn) [Example 224, 1-(8-{[(1S)-5-[2-(2-aminopyridin-3-yl)-5-(pyrazol-1-yl)imidazo[4,5-b]pyridin-3-yl]-2,3-dihydro-1H-inden-1-yl]amino}-6-oxa-3-azabicyclo[3.2.1]octan-3-yl)prop-2-en-1-one] the same measures were 70.6 nM, 1240 nM, 256 nM and 719 nM.
Take `C=CC(=O)N1CCC(N[C@@H]2c3ccc(-n4c(-c5cccnc5N)nc5ccc(-n6ccc(F)n6)nc54)cc3CC2F)CC1` (single isomer, unassigned) [Example 236, 1-(4-(((1R,2*)-5-(2-(2-aminopyridin-3-yl)-5-(3-fluoro-1H-pyrazol-1-yl)-3H-imidazo[4,5-b]pyridin-3-yl)-2-fluoro-2,3-dihydro-1H-inden-1-yl)amino)piperidin-1-yl)prop-2-en-1-one]: the IC50 at AKT1 E17K [1] came out at 12.4 nM; on AKT1 WT [5], 778 nM; at AKT2, 87.2 nM; in test [6] (Homo sapiens, LAPC4, 72 h), 300 nM.
The like results for `C=CC(=O)N1CCC(N[C@@H]2c3ccc(-n4c(-c5cccnc5N)nc5ccc(-n6cccn6)nc54)cc3CC2F)C[C@H]1C` (single isomer, unassigned) [Example 143, 1-((2R,4*)-4-(((1R,2*)-5-(2-(2-aminopyridin-3-yl)-5-(1H-pyrazol-1-yl)-3H-imidazo[4,5-b]pyridin-3-yl)-2-fluoro-2,3-dihydro-1H-inden-1-yl)amino)-2-methylpiperidin-1-yl)prop-2-en-1-one] were, in that order, 353 nM, 60.2 nM, 1260 nM and 499 nM.
`C=CC(=O)N1CCC(N[C@H]2CCc3cc(-n4c(-c5cccnc5N)nc5ccc(-c6ccn(C(F)F)n6)nc54)ccc32)CC1` [Example 107, 1-(4-{[(1S)-5-[2-(2-aminopyridin-3-yl)-5-[1-(difluoromethyl)pyrazol-3-yl]imidazo[4,5-b]pyridin-3-yl]-2,3-dihydro-1H-inden-1-yl]amino}piperidin-1-yl)prop-2-en-1-one]: the IC50 on AKT1 E17K [1] amounted to 18.1 nM; at AKT1 WT [5] it was 6.19 nM; on AKT2, 192 nM; in test [6] (Homo sapiens, LAPC4, 72 h), 164 nM.
The like results for `C=CC(=O)N1CCC(N[C@H]2CCc3cc(-n4c(-c5cccnc5N)nc5ccc(-n6ccc(COC)n6)nc54)ccc32)CC1` [Example 280, 1-(4-{[(1S)-5-[2-(2-aminopyridin-3-yl)-5-[3-(methoxymethyl)pyrazol-1-yl]imidazo[4,5-b]pyridin-3-yl]-2,3-dihydro-1H-inden-1-yl]amino}piperidin-1-yl)prop-2-en-1-one] were, in that order, 20.3 nM, 127 nM, 82.1 nM and 104 nM.
Take `C=CC(=O)N1CCC(N[C@H]2CCc3cc(-n4c(-c5cccnc5N)nc5ccc(-n6cccn6)nc54)ccc32)C1` (single isomer, unassigned) [Example 58, 1-((*)-3-(((S)-5-(2-(2-aminopyridin-3-yl)-5-(1H-pyrazol-1-yl)-3H-imidazo[4,5-b]pyridin-3-yl)-2,3-dihydro-1H-inden-1-yl)amino)pyrrolidin-1-yl)prop-2-en-1-one]: the IC50 at AKT1 E17K [1] was determined as 189 nM; on AKT1 WT [5], 50.2 nM; on AKT2 it was 1030 nM; in test [6] (72 h) it was 438 nM.
The like results for `C=CC(=O)N1CCCC(N[C@H]2CCc3cc(-n4c(-c5cccnc5N)nc5ccc(-n6cccn6)nc54)ccc32)CC1` (single isomer, unassigned) [Example 81, 1-((*)-4-(((S)-5-(2-(2-aminopyridin-3-yl)-5-(1H-pyrazol-1-yl)-3H-imidazo[4,5-b]pyridin-3-yl)-2,3-dihydro-1H-inden-1-yl)amino)azepan-1-yl)prop-2-en-1-one] were, in that order, greater than 1000 nM, 93.2 nM, 1200 nM and 7600 nM.
As for `C=CC(=O)N1CCN(NC2CCc3cc(-n4c(-c5cccnc5N)nc5ccc(-n6cccn6)nc54)ccc32)CC1` (racemic) [Example 77, 1-[4-({5-[2-(2-aminopyridin-3-yl)-5-(pyrazol-1-yl)imidazo[4,5-b]pyridin-3-yl]-2,3-dihydro-1H-inden-1-yl}amino)piperazin-1-yl]prop-2-en-1-one], the IC50 at AKT1 E17K [1] amounted to 86.3 nM; at AKT1 WT [5] it was 17.9 nM; on AKT2, 346 nM; in test [6] (Homo sapiens, LAPC4, 72 h), 247 nM.
